The source of these data is patent publication US9029403B2, “Treatment of ovarian cancer with benzylidenebenzohydrazides” (Memorial Sloan-Kettering Cancer Center, priority 2011, dated 2015).

The test system of this data set is NSG mice. The data set can be described thus: In vivo toxicity in NSG mice. As to conditions: intraperitoneal, 1, 2.5, 5, 10, 20 or 40 mg/kg, once or three times a week for 4 weeks. Here is the method: The compound designated example 10 above was tested in vivo for toxicity in NSG mice. As used herein, NSG and NSG mice mean the NOD scid gamma (NSG) mice, or an equivalent, available from The Jackson Laboratory and which are the NOD.Cg-Prkdc^scid I12rg^tm1Wj1/SzJ JAX® Mice strain. The NSG mice were injected intraperitoneally with 1, 2.5, 5, 10, 20 or 40 mg/kg of the compound designated example 10 above for once or three times a week for 4 weeks.

In the case of `Cc1ccc(C(=O)N/N=C/c2c(O)ccc3ccccc23)cn1` [example 10], the overt toxicity result is given as “no overt toxicity”.
